Reference: US7381841B2, “Pentafluorosulfanylphenyl-substituted benzoylguanidines, processes for their preparation, their use as medicament or diagnostic aid, and medicament comprising them” (Sanofi-Aventis Deutschland GmbH, priority 2003, dated 2008)

Tests used:
human NHE-1 = target: T1, human NHE-1 (Homo sapiens, UniProt P19634); experiment: NHE-1 inhibition, FLIPR assay measuring recovery of pHi in transfected cell lines; type: cell-based; conditions: pHi recovery in transfected LAP-1 cell lines expressing human NHE-1, read-out: NHE1 inhibition IC50
T1 construct: expressed in transfected cells; host or cells: LAP-1 (parental cell line without endogenous NHE activity), G418-selected transfectants
Procedure: The NHE-1 inhibition IC50 was determined in an FLIPR assay by measurement of the recovery in pHi in transfected cell lines which express human NHE-1.
The assay was carried out in an FLIPR (fluorescent imaging plate reader) with black-walled 96-well microtiter plates with clear bases.
The growth medium for the transfected cells (Iscove+10% fetal calf serum) additionally contained G418 as selection antibiotic in order to ensure the presence of the transfected sequences.
The actual assay started with the removal of the growth medium and addition of 100 μl of loading buffer per well (5 μM BCECF-AM [2′,7′-bis(carboxyethyl)-5- (and -6-)carboxyfluorescein, acetoxymethyl ester] in 20 mM NH4Cl, 115 mM choline chloride, 1 mM MgCI2, 1 mM CaCI2, 5 mM KCI, 20 mM HEPES, 5 mM glucose; pH 7.4 [adjusted with KOH]). The cells were then incubated at 37° C. for 20 minutes. This incubation led to loading of the cells with the fluorescent dye whose fluorescence intensity depends on pHi, and with NH4Cl which makes the cells slightly alkaline. The nonfluorescent dye precursor BCECF-AM is, as ester, membrane-permeable. The actual dye BCECF is not membrane-permeable but is liberated inside cells by esterases.
After this incubation for 20 minutes, the loading buffer which contained NH4Cl and free BCECF-AM was removed by washing three times in a cell washer (Tecan Columbus) with in each case 400 μl of washing buffer (133.8 mM choline chloride, 4.7 mM KCI, 1.25 mM MgCI2, 1.25 mM CaCI2, 0.97 mM K2HPO4, 0.23 mM KH2PO4, 5 mM HEPES, 5 mM glucose; pH 7.4 [adjusted with KOH]). The residual volume remaining in the wells was 90 μl (50-125 μl possible). This washing step removed the free BCECF-AM and resulted, as a consequence of the removal of the external NH4^+ ions, in intracellular acidification (˜pHi 6.3-6.4).
This may eventually lead to cell death if it persists long enough.
It was important at this point that the washing buffer was sodium-free (<1 mM) because extracellular sodium ions would lead to an instantaneous recovery of the pHi through the activity of the cloned NHE isoforms.
It was likewise important for all the buffers used (loading buffer, washing buffer, recovery buffer) not to contain any HCO3^− ions, because the presence of bicarbonate would lead to activation of interfering bicarbonate-dependent pHi regulatory systems present in the parental LAP-1 cell line.
The microtiter plates with the acidified cells were then (up to 20 minutes after the acidification) transferred to the FLIPR. In the FLIPR, the intracellular fluorescent dye was excited by light with a wavelength of 488 nm generated by an argon laser, and the measured parameters (laser power, illumination time and aperture of the CCD camera incorporated in the FLIPR) were chosen so that the average fluorescence signal per well was between 30 000 and 35 000 relative fluorescence units.
The actual measurement in the FLIPR started with a photograph being taken by the CCD camera every two seconds under software control. After ten seconds, the recovery of the intracellular pH was initiated by adding 90 μl of recovery buffer (133.8 mM NaCl, 4.7 mM KCI, 1.25 mM MgCI2, 1.25 mM CaCI2, 0.97 mM K2HPO4, 0.23 mM KH2PO4, 10 mM HEPES, 5 mM glucose; pH 7.4 [adjusted with NaOH]) by means of the 96-well pipettor incorporated in the FLIPR.
Positive control wells (100% NHE activity) were those to which pure recovery buffer was added, while negative controls (0% NHE activity) received washing buffer. Recovery buffer with twice the concentration of test substance was added to all the other wells. Measurement in the FLIPR terminated after 60 measurements (two minutes).
The raw data are exported into the ActivityBase program. This program firstly calculates the NHE activities for each tested substance concentration and, from these, the IC50 values for the substances. […]

[1] = In vivo pharmacokinetics, profiling with the "n in one method"; conditions: iv; fasting male beagle dog, single i.v. bolus into jugular vein, about 1 mg/kg of each substance, given together, plasma; read-out: Half-life t½ (converted)
Procedure: In vivo pharmacokinetics—profiling with the “n in one method”
The exposure data and the half-life were determined as characteristic follows:
Two NHE-1 inhibiotors of the invention (example 1 and example 9) and a known NHE-1 reference subtance (cariporide)
[drawing 36] where dissolved in the slightly acidic aqueous medium (water, pH 4, adjusted with 1 M hydrochloric acid). The concentration of the aqueous formulation prepared in this way was about 1.5 mg of each substance per 1 g of solution. 10 ml of this formulation were administered once as bolus by means of a catheter into the jugular vein of a fasting male beagle dog (dose about 1 mg of each administered substance per kg of the dog's body weight). Blood samples were obtained by means of a second catheter after 5 min, 15 min, 30 min, 1 h, 2 h, 4 h, 8 h and 24 h, and heparinized plasma was prepared by centrifugation at 1000 G in appropriate plasma tubes.
The plasma samples were worked up and quantified by MS/MS after an HPLC separation. Simultaneous determination of a plurality of substances was possible with this method owing to its high specificity. The half-lives could be calculated using the WinNonlin computer program from the concentration-time plots (see FIG. 1) and compared with the half-life of the known NHE-1 reference substance. Since the various substances were measured in the same animal at the same time, the result was an accurate comparison of the compounds, and a ranking of the half-lives was possible.

T1 sequence (P19634 whole entry): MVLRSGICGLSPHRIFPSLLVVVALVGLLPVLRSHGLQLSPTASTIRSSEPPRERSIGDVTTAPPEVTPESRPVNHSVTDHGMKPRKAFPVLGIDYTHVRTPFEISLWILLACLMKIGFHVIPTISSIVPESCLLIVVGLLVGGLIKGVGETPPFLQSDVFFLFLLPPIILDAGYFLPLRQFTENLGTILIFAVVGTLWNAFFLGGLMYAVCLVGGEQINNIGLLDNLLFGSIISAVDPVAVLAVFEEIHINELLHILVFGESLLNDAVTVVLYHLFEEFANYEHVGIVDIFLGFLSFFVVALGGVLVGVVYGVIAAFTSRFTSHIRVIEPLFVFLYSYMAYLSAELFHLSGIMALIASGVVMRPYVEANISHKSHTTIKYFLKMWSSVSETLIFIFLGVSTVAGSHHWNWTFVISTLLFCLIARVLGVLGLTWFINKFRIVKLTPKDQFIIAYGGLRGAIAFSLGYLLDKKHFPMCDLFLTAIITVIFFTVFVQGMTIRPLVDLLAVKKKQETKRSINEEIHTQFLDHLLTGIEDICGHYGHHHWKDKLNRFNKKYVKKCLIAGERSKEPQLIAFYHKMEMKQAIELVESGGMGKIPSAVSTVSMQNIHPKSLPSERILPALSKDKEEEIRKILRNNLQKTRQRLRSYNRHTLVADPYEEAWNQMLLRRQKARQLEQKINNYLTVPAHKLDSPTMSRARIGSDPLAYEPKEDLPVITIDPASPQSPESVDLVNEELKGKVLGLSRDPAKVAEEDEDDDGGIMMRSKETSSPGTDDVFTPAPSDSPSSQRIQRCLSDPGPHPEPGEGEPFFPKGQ

IC50 (human NHE-1)	half-life [1]	melting point	SMILES
3.7 nM	–	–	Cc1cc(N(C)c2ccc(S(F)(F)(F)(F)F)cc2)c(S(C)(=O)=O)cc1C(=O)N=C(N)N [Example 8, N-{5-Methanesulfonyl-2-methyl-4-[methyl-(4-pentafluorosulfanyl-phenyl)amino]benzoyl}guanidine]
2.1 nM	2390 min	238 to 240 °C	Cc1cc(-c2ccc(S(F)(F)(F)(F)F)cc2)c(S(C)(=O)=O)cc1C(=O)N=C(N)N [Example 9, N-(2-Methanesulfonyl-5-methyl-4′-pentafluorosulfanylbiphenyl-4-carbonyl)guanidine]
38.8 nM	–	169 to 175 °C	Cc1cc(-c2cccc(S(F)(F)(F)(F)F)c2)c(S(C)(=O)=O)cc1C(=O)N=C(N)N [Example 10, N-(2-Methanesulfonyl-5-methyl-3′-pentafluorosulfanylbiphenyl-4-carbonyl)guanidine]
81.5 nM	–	–	Cc1cc(-c2ccc(S(F)(F)(F)(F)F)cc2C)c(S(C)(=O)=O)cc1C(=O)N=C(N)N [Example 11, N-(2-Methanesulfonyl-5,2′-dimethyl-4′-pentafluorosulfanylbiphenyl-4-carbonyl)guanidine]
–	246 min	–	CC(C)c1ccc(C(=O)N=C(N)N)cc1S(C)(=O)=O.CS(=O)(=O)O [cariporide, reference compound]

More lines, now with the values behind:

SMILES	IC50 (human NHE-1)	half-life [1]	melting point
Cc1cc(Oc2cccc(S(F)(F)(F)(F)F)c2)c(S(C)(=O)=O)cc1C(=O)N=C(N)N [Example 1, N-[5-Methanesulfonyl-2-methyl-4-(3-pentafluorosulfanylphenoxy)-benzoyl]guanidine]	3.9 nM	1210 min	166 to 168 °C
Cc1cc(Oc2ccc(S(F)(F)(F)(F)F)cc2)c(S(C)(=O)=O)cc1C(=O)N=C(N)N [Example 2, N-[5-Methanesulfonyl-2-methyl-4-(4-pentafluorosulfanylphenoxy)-benzoyl]guanidine]	1.9 nM	–	–
Cc1cc(Sc2ccc(S(F)(F)(F)(F)F)cc2)c(S(C)(=O)=O)cc1C(=O)N=C(N)N [Example 3, N-[5-Methanesulfonyl-2-methyl-4-(4-pentafluorosulfanylphenylsulfanyl)benzoyl]-guanidine]	4.7 nM	–	–
Cc1cc(S(=O)(=O)c2ccc(S(F)(F)(F)(F)F)cc2)c(S(C)(=O)=O)cc1C(=O)N=C(N)N [Example 4, N-[5-Methanesulfonyl-2-methyl-4-(4-pentafluorosulfanylphenylsulfonyl)-benzoyl]guanidine]	4670 nM	–	–
Cc1cc(Nc2cccc(S(F)(F)(F)(F)F)c2)c(S(C)(=O)=O)cc1C(=O)N=C(N)N [Example 5, N-[5-Methanesulfonyl-2-methyl-4-(3-pentafluorosulfanylphenylamino)-benzoyl]guanidine]	6.4 nM	–	–
Cc1cc(Nc2ccc(S(F)(F)(F)(F)F)cc2)c(S(C)(=O)=O)cc1C(=O)N=C(N)N [Example 6, N-[5-Methanesulfonyl-2-methyl-4-(4-pentafluorosulfanylphenyl-amino)benzoyl]guanidine]	27.1 nM	–	–
Cc1cc(N(C)c2cccc(S(F)(F)(F)(F)F)c2)c(S(C)(=O)=O)cc1C(=O)N=C(N)N [Example 7, N-{5-Methanesulfonyl-2-methyl-4-[methyl-(3-pentafluorosulfanylphenyl)-amino]benzoyl}guanidine]	14.5 nM	–	–
